We go through 4 compounds from ChEMBL document CHEMBL1201862, “PubChem BioAssay data set” (2004).

The structures appear in SMILES notation.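 These data come from cells grown in 96-well plates and exposed to compound for 48 hours at five concentrations. GI50 = concentration required for 50% inhibition of growth.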 Calls of active or inactive are those of the source. Rule as the data show it: active = GI50 up to about 1.1 µM and inactive = higher. Some results are limits rather than exact numbers.

Among the test systems are SW-620; CAKI-1; T47D; U-251; Hs-578T; LOX IMVI; SF-295; 786-0; BT-549; SF-539; NCI-H226; SK-MEL-5; HCT-15; COLO 205; SK-MEL-2; SNB-75; UO-31; IGROV-1; KM12; UACC-62.
What all share (assay): growth of human tumour cells (NCI), 48 h

For `[N-]=[N+]=Nc1c(-c2ccccc2)c(Cl)nc2ccccc12`, the GI50 in the assay on SW-620 was 35.4 µM (inactive); with CAKI-1, 31.8 µM (inactive); in the assay with T47D it was 41 µM (inactive); in the assay with U-251, 48 µM (inactive); with Hs-578T, 44.2 µM (inactive); in the assay on LOX IMVI, 20.6 µM (inactive). Also, the GI50 is 22.8 µM (inactive) in the assay on SF-295; 38 µM (inactive) in the assay with 786-0; 23.2 µM (inactive) with BT-549; 43.8 µM (inactive) in the assay with SF-539; 22.2 µM (inactive) in the assay on NCI-H226; 17.3 µM (inactive) in the assay on SK-MEL-5. Besides, the GI50 was 28.4 µM with HCT-15; 20 µM (inactive) with COLO 205; 58.3 µM (inactive) in the assay with SK-MEL-2; 29.9 µM (inactive) in the assay on SNB-75; 15.5 µM (inactive) in the assay on UO-31; 39.5 µM (inactive) in the assay with IGROV-1. Besides, the GI50 with KM12 is 19.1 µM (inactive).
For `C=C1CC[C@@]2(OC1)OC1C[C@H]3[C@@H]4CC=C5C[C@@H](O)CC(OC6OCC(OC(=O)[C@@H](O)[C@@H](C)CC)C(OC(C)=O)C6OC6OC(C)C(O)C(O)C6O)[C@]5(C)[C@H]4CC[C@]3(C)C1[C@@H]2C` (some centres undefined), the GI50 is 2.1 µM (inactive) in the assay with SW-620; 2.65 µM (inactive) in the assay with CAKI-1; 4.78 µM (inactive) with T47D; 1.77 µM (inactive) in the assay on UACC-62; 1.75 µM (inactive) with U-251; 3.4 µM (inactive) with Hs-578T. In addition, the GI50 was 1.87 µM (inactive) with LOX IMVI; 1.75 µM (inactive) in the assay with SF-295; 1.82 µM (inactive) in the assay on 786-0; 3.76 µM (inactive) in the assay on BT-549; 2.31 µM (inactive) in the assay with SF-539; 2.64 µM (inactive) in the assay on NCI-H226. The GI50 in the assay with SK-MEL-5 is 1.97 µM (inactive); in the assay on HCT-15, 1.91 µM; in the assay on COLO 205, 2.11 µM (inactive); with SK-MEL-2, 1.57 µM (inactive); in the assay with SNB-75, 2 µM (inactive); in the assay with UO-31, 2.4 µM (inactive). Further, the GI50 in the assay on IGROV-1 was 2.56 µM (inactive); in the assay on KM12 it was 2.14 µM (inactive).
On to `FC(F)(F)c1nc2ccc(SSc3ccc4nc(C(F)(F)F)[nH]c4c3)cc2[nH]1`, for which the GI50 was 61.1 µM (inactive) in the assay with SW-620; > 10 µM (inactive) with CAKI-1; 38.8 µM (inactive) with T47D; 73.8 µM (inactive) in the assay with UACC-62; 84.1 µM (inactive) with U-251; > 10 µM (inactive) in the assay on Hs-578T. Also, the GI50 with LOX IMVI was 40.5 µM (inactive); in the assay with SF-295 it was 4.41 µM (inactive); in the assay on 786-0, 50.5 µM (inactive); in the assay on BT-549, 92.7 µM (inactive); in the assay with SF-539, 41.8 µM (inactive); in the assay on NCI-H226 it was > 10 µM (inactive). The GI50 in the assay on SK-MEL-5 is 45.9 µM (inactive); with HCT-15, 93.5 µM; in the assay on COLO 205, 33.9 µM (inactive); in the assay on SK-MEL-2, > 10 µM (inactive); in the assay on SNB-75, > 10 µM (inactive); in the assay with UO-31, 31.6 µM (inactive). Moreover, the GI50 in the assay on IGROV-1 and with KM12 was > 10 µM (inactive) throughout.
`Cc1ccc2c(O)cc(-c3ccc(C)s3)nc2n1`: the GI50 was 0.106 µM (active) with SW-620; 0.811 µM (active) in the assay with CAKI-1; 0.506 µM (active) in the assay on T47D; 0.35 µM (active) in the assay with UACC-62; 0.413 µM (active) in the assay with U-251; 0.297 µM (active) with Hs-578T. Also, the GI50 in the assay on LOX IMVI is 0.472 µM (active); with SF-295 it was 0.267 µM (active); in the assay on 786-0 it was 0.443 µM (active); in the assay with BT-549, 0.804 µM (active); with SF-539, 0.325 µM (active); in the assay with NCI-H226, 0.357 µM (active). Also, the GI50 in the assay on SK-MEL-5 is 0.139 µM (active); in the assay on HCT-15 it was 0.0863 µM; in the assay with COLO 205 it was 0.459 µM (active); with SK-MEL-2, 59.3 µM (inactive); with SNB-75 it was 0.254 µM (active); in the assay with UO-31, 0.439 µM (active). The GI50 in the assay with IGROV-1 is 0.44 µM (active); with KM12, 0.0912 µM (active).
